Test results published in US11492335B2, “Aryl or heteroaryl triazolone derivatives or salts thereof, or pharmaceutical compositions comprising the same” (YUHAN CORPORATION, priority 2018, dated 2022).
Structures can show the parent of a compound that is named as a salt. Where two headings read alike, the source gives them in different places.

Legend:
Type in all cases: biochemical
[1] = target: T1, recombinant human DAO (diamine oxidase) (Homo sapiens, UniProt P19801); experiment: Activity on recombinant human DAO, Amplex Red method, 1 mM putrescine substrate; conditions: recombinant human DAO, read-out: Inhibitory Activity (IC50, nM) DAO
T1 construct: purchased R&D systems
T1 sequence (P19801 20-751): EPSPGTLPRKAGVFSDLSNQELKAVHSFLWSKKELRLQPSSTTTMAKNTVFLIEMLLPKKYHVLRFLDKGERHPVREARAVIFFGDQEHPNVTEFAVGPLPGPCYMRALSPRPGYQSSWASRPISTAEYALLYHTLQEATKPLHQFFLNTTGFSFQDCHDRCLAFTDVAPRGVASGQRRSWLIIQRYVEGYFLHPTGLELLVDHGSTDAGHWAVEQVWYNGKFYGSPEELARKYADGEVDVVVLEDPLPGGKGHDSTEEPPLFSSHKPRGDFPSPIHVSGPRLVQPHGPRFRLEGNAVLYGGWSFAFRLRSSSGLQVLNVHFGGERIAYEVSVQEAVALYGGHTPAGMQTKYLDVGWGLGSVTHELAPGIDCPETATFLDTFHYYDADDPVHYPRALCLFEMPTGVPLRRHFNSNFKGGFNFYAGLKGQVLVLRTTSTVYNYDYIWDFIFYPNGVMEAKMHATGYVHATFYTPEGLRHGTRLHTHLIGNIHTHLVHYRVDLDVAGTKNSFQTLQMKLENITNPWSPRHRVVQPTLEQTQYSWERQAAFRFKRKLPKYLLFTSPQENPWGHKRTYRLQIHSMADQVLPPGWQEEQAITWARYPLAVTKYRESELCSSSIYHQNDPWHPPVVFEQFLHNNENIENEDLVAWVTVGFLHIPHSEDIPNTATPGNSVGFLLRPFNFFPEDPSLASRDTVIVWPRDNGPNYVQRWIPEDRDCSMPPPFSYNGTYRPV
How it was run: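 Inhibition of recombinant human DAO (diamine oxidase, R&D systems) was assessed with the Amplex Red Hydrogen Peroxide Assay Kit. Hydrogen peroxide produced from 1 mM putrescine was detected through an HRP-coupled reaction that converts Amplex Red into fluorescent resorufin, read at 544 nm excitation and 590 nm emission. IC50 values came from four-parameter logistic fits in GraphPad Prism.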

[2] = target: T2, recombinant human MAO-B (monoamine oxidase-B) (Homo sapiens, UniProt P27338); experiment: Activity on recombinant human MAO-B, Amplex Red method, 1 mM benzylamine substrate; conditions: read-out: Inhibitory Activity (IC50, nM) MAO-B
T2 construct: purchased Sigma-Aldrich
T2 sequence (P27338 1-520): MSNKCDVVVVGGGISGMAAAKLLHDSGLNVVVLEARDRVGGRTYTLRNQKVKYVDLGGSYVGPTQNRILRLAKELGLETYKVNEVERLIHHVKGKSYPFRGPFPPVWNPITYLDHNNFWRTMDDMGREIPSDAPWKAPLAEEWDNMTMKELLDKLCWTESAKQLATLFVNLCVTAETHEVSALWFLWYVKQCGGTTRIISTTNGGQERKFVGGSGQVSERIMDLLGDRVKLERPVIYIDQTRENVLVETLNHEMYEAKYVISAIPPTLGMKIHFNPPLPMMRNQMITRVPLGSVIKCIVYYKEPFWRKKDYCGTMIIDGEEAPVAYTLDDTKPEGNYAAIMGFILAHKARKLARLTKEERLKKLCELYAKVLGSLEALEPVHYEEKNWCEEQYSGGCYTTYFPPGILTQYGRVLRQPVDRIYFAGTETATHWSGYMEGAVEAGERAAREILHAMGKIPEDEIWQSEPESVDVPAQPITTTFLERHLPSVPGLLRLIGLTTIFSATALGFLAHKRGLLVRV
How it was run: (§1)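 Amplex Red/HRP coupled read-out of H2O2 with 0.5 mM tyramine for MAO-A or 1 mM benzylamine for MAO-B, following a 30-min compound–enzyme preincubation at 37° C. IC50 from percent inhibition of signal rate relative to uninhibited control.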

recombinant human VAP-1 = target: T3, recombinant human VAP-1 (Homo sapiens, UniProt Q16853); experiment: Activity on recombinant human VAP-1, Amplex Red HRP-coupled hydrogen peroxide assay, benzylamine substrate; conditions: recombinant human VAP-1, benzylamine substrate, read-out: Inhibitory Activity (IC50, nM) human VAP-1
T3 construct: purchased R&D systems
T3 sequence (Q16853 1-763): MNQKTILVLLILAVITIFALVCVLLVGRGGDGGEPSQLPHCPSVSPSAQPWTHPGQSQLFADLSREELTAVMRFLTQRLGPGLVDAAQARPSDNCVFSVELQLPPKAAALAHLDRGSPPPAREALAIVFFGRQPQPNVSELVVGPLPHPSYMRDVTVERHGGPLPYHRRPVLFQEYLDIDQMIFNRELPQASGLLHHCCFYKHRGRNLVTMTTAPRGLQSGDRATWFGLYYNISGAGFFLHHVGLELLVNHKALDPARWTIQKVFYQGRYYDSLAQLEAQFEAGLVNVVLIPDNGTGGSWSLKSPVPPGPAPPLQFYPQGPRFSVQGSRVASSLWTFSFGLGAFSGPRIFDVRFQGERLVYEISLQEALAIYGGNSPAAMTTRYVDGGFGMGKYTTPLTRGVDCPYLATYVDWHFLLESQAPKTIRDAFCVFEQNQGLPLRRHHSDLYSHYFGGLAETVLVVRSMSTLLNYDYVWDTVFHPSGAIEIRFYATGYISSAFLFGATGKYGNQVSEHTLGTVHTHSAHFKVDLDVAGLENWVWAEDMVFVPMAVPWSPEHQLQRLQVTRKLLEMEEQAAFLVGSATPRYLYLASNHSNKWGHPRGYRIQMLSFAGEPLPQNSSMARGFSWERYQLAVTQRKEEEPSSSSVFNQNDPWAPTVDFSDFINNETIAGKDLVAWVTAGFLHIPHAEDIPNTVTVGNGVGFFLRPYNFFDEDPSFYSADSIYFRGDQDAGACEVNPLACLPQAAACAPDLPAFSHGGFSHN
How it was run: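 Dose-response IC50 determined from reduction in resorufin signal rate (544/590 nm, 1-2 h), with 30 min compound preincubation at 37 °C and 1 mM benzylamine as substrate.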

[3] = target: T4, recombinant human MAO-A (monoamine oxidase-A) (Homo sapiens, UniProt P21397); experiment: Activity on recombinant human MAO-A, Amplex Red method, 0.5 mM tyramine substrate; conditions: read-out: Inhibitory Activity (IC50, nM) MAO-A
T4 construct: purchased Sigma-Aldrich
T4 sequence (P21397 1-527): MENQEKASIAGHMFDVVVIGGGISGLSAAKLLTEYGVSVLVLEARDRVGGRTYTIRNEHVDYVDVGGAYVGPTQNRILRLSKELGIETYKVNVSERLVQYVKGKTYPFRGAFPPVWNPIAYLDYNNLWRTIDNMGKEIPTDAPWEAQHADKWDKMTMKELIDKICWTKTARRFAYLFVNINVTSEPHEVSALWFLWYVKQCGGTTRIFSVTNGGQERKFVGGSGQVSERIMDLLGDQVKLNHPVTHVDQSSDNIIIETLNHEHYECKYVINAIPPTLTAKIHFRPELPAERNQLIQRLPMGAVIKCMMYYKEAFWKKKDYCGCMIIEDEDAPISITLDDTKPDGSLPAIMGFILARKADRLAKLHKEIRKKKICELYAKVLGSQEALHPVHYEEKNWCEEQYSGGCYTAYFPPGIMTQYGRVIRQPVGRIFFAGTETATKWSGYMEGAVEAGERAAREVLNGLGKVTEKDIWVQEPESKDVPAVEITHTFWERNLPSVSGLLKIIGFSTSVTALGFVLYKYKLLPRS
How it was run: as §1

[4] = 1 mM putrescine, * = between 10 and 100 nM, ** = between 300 and 1000 nM

Row | IC50 ([1]; 1 mM putrescine substrate) [nM] | IC50 ([2]; 1 mM benzylamine substrate) [nM] | IC50 (recombinant human VAP-1) [nM] | IC50 ([3]; 0.5 mM tyramine substrate) [nM] | IC50 [1, 4] [nM] | IC50 ([2]; 1 mM benzylamine) [nM] | IC50 (recombinant human VAP-1; 30 min preincubation at 37° C.) [nM] | IC50 ([3]; 0.5 mM tyramine) [nM] | Compound
1 | 110 | > 10000 | 1.4 | 14000 | – | – | – | – | NC/C(=C\F)Cn1ncn(-c2cccc(-c3ccc(N4CCNCC4)cc3)n2)c1=O [Example 184, 2-[(2E)-2-(aminomethyl)-3-fluoroprop-2-en-1-yl]-4-{6-[4-(piperazin-1-yl)phenyl]pyridin-2-yl}-2,4-dihydro-3H-1,2,4-triazol-3-one hydrochloride]
2 | < 10 | > 10000 | 0.91 | > 100000 | – | – | – | – | NC/C(=C\F)Cn1ncn(-c2cccc(-c3ccc(C(=O)N4CCOCC4)cc3)n2)c1=O [Example 186, 2-[(2E)-2-(aminomethyl)-3-fluoroprop-2-en-1-yl]-4-{6-[4-(morpholin-4-ylcarbonyl)phenyl]pyridin-2-yl}-2,4-dihydro-3H-1,2,4-triazol-3-one hydrochloride]
3 | – | – | – | – | 280 | 850 | 0.54 | 62000 | CC(=O)c1ccc(-c2cnc(-n3cnn(C/C(=C/F)CN)c3=O)c(C)c2)s1 [Example 132, 4-[5-(5-acetylthiophen-2-yl)-3-methylpyridin-2-yl]-2-[(2E)-2-(aminomethyl)-3-fluoroprop-2-en-1-yl]-2,4-dihydro-3H-1,2,4-triazol-3-one hydrochloride]
4 | 29000 | > 100000 | 1.4 | > 100000 | – | – | – | – | Cc1cc(-c2ccc(N3CCNCC3)nc2)cnc1-n1cnn(C/C(=C/F)CN)c1=O [Example 259, 2-[(E)-2-(aminomethyl)-3-fluoro-allyl]-4-[3-methyl-5-(6-piperazin-1-yl-3-pyridyl)-2-pyridyl]-1,2,4-triazol-3-one]
5 | 1.8 | 74 | 0.21 | 1510 | – | – | – | – | Cc1cc(-n2cnn(C/C(=C/F)CN)c2=O)ncc1-c1ccc2c(c1)OCO2 [Example 159, 2-[(2E)-2-(aminomethyl)-3-fluoroprop-2-en-1-yl]-4-[5-(1,3-benzodioxol-5-yl)-4-methylpyridin-2-yl]-2,4-dihydro-3H-1,2,4-triazol-3-one]
6 | 1600 | 230 | 1.6 | > 100000 | – | – | – | – | CN(C)c1ccc(/C=C/c2cccc(-n3cnn(C/C(=C/F)CN)c3=O)n2)cc1 [Example 239, 2-[(E)-2-(aminomethyl)-3-fluoro-allyl]-4-[6-[(E)-2-[4-(dimethylamino)phenyl]vinyl]-2-pyridyl]-1,2,4-triazol-3-one hydrochloride]
7 | – | – | – | – | < 100 | 7520 | 0.54 | > 100000 | CC(=O)Nc1cc(-c2cccc(-n3cnn(C/C(=C/F)CN)c3=O)c2)ccn1 [Example 81, N-[4-(3-{1-[(2E)-2-(aminomethyl)-3-fluoroprop-2-en-1-yl]-5-oxo-1,5-dihydro-4H-1,2,4-triazol-4-yl}phenyl)pyridin-2-yl]acetamide hydrochloride]
8 | – | – | – | – | 2.7 | > 10000 | 0.82 | 37800 | CC(=O)Nc1ccc(-c2ccc(-c3cccc(-n4cnn(C/C(=C/F)CN)c4=O)c3)cc2)cc1 [Example 68, N-(3″-{1-[(2E)-2-(aminomethyl)-3-fluoroprop-2-en-1-yl]-5-oxo-1,5-dihydro-4H-1,2,4-triazol-4-yl}-1,1′:4′,1″-terphenyl-4-yl)acetamide hydrochloride]
9 | – | – | – | – | 0.76 | < 10 | 0.32 | 120 | NC/C(=C\F)Cn1ncn(-c2ccc(-c3ccc4nonc4c3)cc2F)c1=O [Example 46, 2-[(2E)-2-(aminomethyl)-3-fluoroprop-2-en-1-yl]-4-[4-(2,1,3-benzooxadiazol-5-yl)-2-fluorophenyl]-2,4-dihydro-3H-1,2,4-triazol-3-one hydrochloride]
10 | < 100 | 10.5 | 2.2 | 21700 | – | – | – | – | NC/C(=C\F)Cn1ncn(-c2cnc(-c3ccc4cn[nH]c4c3)cn2)c1=O [Example 223, 2-[(2E)-2-(aminomethyl)-3-fluoroprop-2-en-1-yl]-4-[5-(1H-indazol-6-yl)pyrazin-2-yl]-2,4-dihydro-3H-1,2,4-triazol-3-one]
